Measurements published in patent publication US20050059684A1, “Method for reducing residual alcohols in crystalline valacyclovir hydrochloride” (priority 2002, published 2005).
Where a name gives a salt, the structure may show the parent alone.

Test: Storage stability of valacyclovir hydrochloride: N′-formylvalacyclovir impurity level by HPLC
Assay type: physicochemical
Details: HPLC area percent; for N′-formylvalacyclovir level (area %), T = 0: before storage; for N′-formylvalacyclovir level (area %), T = 3 month, 25° C., 60% humidity: stored three months at 25° C. and 60% RH; for N′-formylvalacyclovir level (area %), T = 3 month, 40° C., 75% humidity: stored three months at 40° C. and 75% RH
Source text: When used herein in connection with the absolute amount of an impurity, percent refers to area percent of the corresponding impurity peak on the chromatogram obtained by high pressure liquid chromatography. [drawing 2]
Impurities in valacyclovir, especially N′-formylvalacyclovir, can be measure by high pressure liquid chromatography. The chromatographic method utilizes a suitable chromatography column such as the reverse phase column Inertsil ODS-3V 5 μm 150×4.6 mm (GL Sciences, Cat. No. 5020-01731). The eluent is preferably acetonitrile (27%) and water (73%) containing 0.05% phosphoric acid (0.5 g 85% H3PO4 in 1 L water). A flow rate of about 1.0 mL/min is suitable for the separation. The column temperature can be at ambient temperature, preferably about 25° C. The detector can be a UV-spectrophotometer operating in the range of 200-600 nm, preferably about 210 nm. The injection (sample) volume is about 50 μL. The diluent used to load the sample onto the column can be, for example, the eluent.
A sample of valacyclovir hydrochloride (sample X) having circa 1700 ppm residual solvent isopropanol was divided into two portions. One portion was treated by the method of the present invention and, after treatment, had less than 500 ppm residual isopropanol (sample Y). Sample Y and the non-treated portion of sample X were each divided into two roughly equal portions. One portion of each samplewas stored at 25° C. and 60% RH for three months, the other portions of each were stored at 40° C. and 75% RH for three months. The amount of N′-formylvalacyclovir in each of the four portions after storage was determined by HPLC.

| N′-formylvalacyclovir level (area %), T = 0 [area %] | N′-formylvalacyclovir level (area %), T = 3 month, 25° C., 60% humidity [area %] | N′-formylvalacyclovir level (area %), T = 3 month, 40° C., 75% humidity [area %] | Compound |
| --- | --- | --- | --- |
| 0.05 | 0.08 | 0.15 | CC(C)C(N)C(=O)OCCOCn1cnc2c(=O)nc(N)[nH]c21 (stereo not drawn) [X, valacyclovir hydrochloride] |
| 0.03 | 0.03 | 0.05 | CC(C)C(N)C(=O)OCCOCn1cnc2c(=O)nc(N)[nH]c21 (stereo not drawn) [Y, valacyclovir hydrochloride] |
